Data reported in patent publication US20080161367A1, “Insecticidal Mixtures” (BASF Aktiengesellschaft, priority 2005, published 2008).

Columns and labels:
[1] = test system: Western corn rootworm larvae (Diabrotica virgifera virgifera); assay: Seed treatment of field corn seeds, Western corn rootworm larval mortality; format: in vivo; details: corn seed treatment at the rate printed in the row (fipronil 0.005, clothianidin 0.05 g a.i./100 kg seed); 2nd instar larvae; mortality 1 day after infestation, adjusted for untreated controls
Protocol: (§1) Each mixture partner has been evaluated separately at the same rates as used in the mixtures. Synergism was determined by comparing the expected biological effect on plant health or on disease control from the mixture based on the individual effects from the separate partners to the biological effect observed with the mixture. Abbott's formula has be used to make this comparison.
Field corn seeds (Zea mays) were treated with a mixture of commercially available fipronil SC formulation (REGENT® 4 SC—479 g a.i./L) at rates of 0.005 g ai/100 kg seed with commercially available clothianidin formulation (PONCHO® 600—600 g a.i./L) at 0.05 g ai/100 kg seed. In addition, there was a treatment with each mixture partner at its respective solo rate. The carrier for all treatments was water. The respective formulation(s) and water were mixed in a 20 ml vial. Then 25 seeds were added, and the vial was vortexed. After treatment, seeds were allowed to dry. […] Petri plates were incubated at 26° C., and insect mortality was evaluated 1 day later. Percent mortalities were calculated adjusting for any mortality in the untreated controls.
The expected percent mortality for the mixture was calculated based on the percent mortalities observed when each mixture partner was applied solo at the rate it was applied in the mixture using Abbott's formula as follows: […]

[2] = test system: Colorado potato beetle larvae (Leptinotarsa decemlineata); assay: Foliar insecticidal activity on eggplant, Colorado potato beetle feeding damage; format: in vivo; details: foliar spray on eggplant at 0.05 ppm each; 2nd instar larvae; evaluated 3 days later, relative to untreated controls
Protocol: as §1
The foliage of eggplant plants (Solanum melongena, variety Black Beauty) at the 4th to 5th true-leaf stage was treated with a mixture of commercially available fipronil SC formulation (REGENT® 4 SC, 479 g a.i./L-) at 0.05 ppm with commercially available clothianidin formulation (PONCHO® 600, 600 g a.i./L) at 0.05 ppm. In addition, there was a treatment with each mixture partner at its respective solo rate. Treatment was by spraying the leaves to near run-off. The carrier for all treatments was water. Two leaves on each of three plants were sprayed per treatment. […] Insect feeding damage to the foliage was evaluated 3 days later. Percent reductions in insect feeding damage were calculated based on the untreated controls.
The expected reduction in feeding damage for the mixture was calculated based on the percent reductions observed when each mixture partner was applied solo at the rate it was applied in the mixture using Abbott's formula as follows: […]

Row | Compound | Actual Mixture Response [% Larval Mortality] [1] [%] | Actual Mixture Response [% Reduction in Insect Feeding Injury] [2] [%]
1 | CN/C(=N\[N+](=O)[O-])NCc1cnc(Cl)s1 [Clothianidin, clothianidin] | 14 | 21
2 | N#Cc1nn(-c2c(Cl)cc(C(F)(F)F)cc2Cl)c(N)c1[S+]([O-])C(F)(F)F (stereo not shown) [Fipronil, fipronil] | 0 | 0
